These results are taken from patent publication US12258328B2, “6-membered heteroaryl-containing aminopyridine compounds as EGFR inhibitors” (YUHAN CORPORATION, priority 2021, dated 2025).

Read-outs that look alike come from different tables or passages of the source. Some results are limits rather than exact numbers.

Test [1] has as its target EGFR del19/T790M/C797S (Homo sapiens, UniProt P00533, C797S/DEL746-750/T790M). Nature of the test: Biochemical EGFR kinase assay (Lance Ultra TR-FRET), triple mutant del19/T790M/C797S. Put shortly: (§1)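 Enzyme reactions lasted 1 hour at room temperature with test compounds between 0.003 and 10 μM, followed by 10 mM EDTA quench.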
In general terms: TR-FRET usually uses a lanthanide donor and a delayed reading to cut background.

The target in test [2] is EGFR L858R/T790M/C797S (Homo sapiens, UniProt P00533, C797S/L858R/T790M). Nature of the test: Biochemical EGFR kinase assay (Lance Ultra TR-FRET), triple mutant L858R/T790M/C797S. In a few lines:
as §1

Test [3] addresses EGFR del19/C797S (Homo sapiens, UniProt P00533, C797S/DEL746-750). Description: Biochemical EGFR kinase assay (Lance Ultra TR-FRET), double mutant del19/C797S. Put shortly:
as §1

Test [4] addresses EGFR L858R/C797S (Homo sapiens, UniProt P00533, C797S/L858R). Nature of the test: Biochemical EGFR kinase assay (Lance Ultra TR-FRET), double mutant L858R/C797S. In a few lines:
as §1

For test [5], the target named is EGFR wildtype (Homo sapiens, UniProt P00533). Nature of the test: Biochemical EGFR kinase assay (Lance Ultra TR-FRET), wildtype. Put shortly:
as §1

[6] abbreviates: IC50 del19/T790M/C797S (nM) 100 μM ATP, 100 μM ATP.
The mark [7] stands for this setting: Km ATP, read-out: IC50 del19/T790M/C797S (nM) Km ATP.
Setting [8] is: IC50 L858R/T790M/C797S (nM) 100 μM ATP, 100 μM ATP.
[9] abbreviates: Km ATP, read-out: IC50 L858R/T790M/C797S (nM) Km ATP.
The mark [10] stands for this setting: IC50 del19/C797S (nM) 100 μM ATP, 100 μM ATP.
Where [11] appears, read: Km ATP, read-out: IC50 del19/C797S (nM) Km ATP.
The mark [12] stands for this setting: IC50 L858R/C797S (nM) 100 μM ATP, 100 μM ATP.
[13] abbreviates: Km ATP, read-out: IC50 L858R/C797S (nM) Km ATP.
The mark [14] stands for this setting: IC50 WT (nM) 100 μM ATP, 100 μM ATP.
The mark [15] stands for this setting: Km ATP, read-out: IC50 WT (nM) Km ATP.
[16] abbreviates: ATP at Km, read-out: IC50 del19/T790M/C797S, Km ATP.
Where [17] appears, read: IC50 del19/T790M/C797S, 100 μM ATP.
Where [18] appears, read: ATP at Km, read-out: IC50 L858R/T790M/C797S, Km ATP.
Setting [19] is: IC50 L858R/T790M/C797S, 100 μM ATP.
[20] abbreviates: ATP at Km, read-out: IC50 del19/C797S, Km ATP.
Setting [21] is: ATP at Km, read-out: IC50 L858R/C797S, Km ATP.
Where [22] appears, read: ATP at Km, read-out: IC50 WT, Km ATP.

Chain of EGFR L858R/C797S (P00533 25-1210 C797S/L858R): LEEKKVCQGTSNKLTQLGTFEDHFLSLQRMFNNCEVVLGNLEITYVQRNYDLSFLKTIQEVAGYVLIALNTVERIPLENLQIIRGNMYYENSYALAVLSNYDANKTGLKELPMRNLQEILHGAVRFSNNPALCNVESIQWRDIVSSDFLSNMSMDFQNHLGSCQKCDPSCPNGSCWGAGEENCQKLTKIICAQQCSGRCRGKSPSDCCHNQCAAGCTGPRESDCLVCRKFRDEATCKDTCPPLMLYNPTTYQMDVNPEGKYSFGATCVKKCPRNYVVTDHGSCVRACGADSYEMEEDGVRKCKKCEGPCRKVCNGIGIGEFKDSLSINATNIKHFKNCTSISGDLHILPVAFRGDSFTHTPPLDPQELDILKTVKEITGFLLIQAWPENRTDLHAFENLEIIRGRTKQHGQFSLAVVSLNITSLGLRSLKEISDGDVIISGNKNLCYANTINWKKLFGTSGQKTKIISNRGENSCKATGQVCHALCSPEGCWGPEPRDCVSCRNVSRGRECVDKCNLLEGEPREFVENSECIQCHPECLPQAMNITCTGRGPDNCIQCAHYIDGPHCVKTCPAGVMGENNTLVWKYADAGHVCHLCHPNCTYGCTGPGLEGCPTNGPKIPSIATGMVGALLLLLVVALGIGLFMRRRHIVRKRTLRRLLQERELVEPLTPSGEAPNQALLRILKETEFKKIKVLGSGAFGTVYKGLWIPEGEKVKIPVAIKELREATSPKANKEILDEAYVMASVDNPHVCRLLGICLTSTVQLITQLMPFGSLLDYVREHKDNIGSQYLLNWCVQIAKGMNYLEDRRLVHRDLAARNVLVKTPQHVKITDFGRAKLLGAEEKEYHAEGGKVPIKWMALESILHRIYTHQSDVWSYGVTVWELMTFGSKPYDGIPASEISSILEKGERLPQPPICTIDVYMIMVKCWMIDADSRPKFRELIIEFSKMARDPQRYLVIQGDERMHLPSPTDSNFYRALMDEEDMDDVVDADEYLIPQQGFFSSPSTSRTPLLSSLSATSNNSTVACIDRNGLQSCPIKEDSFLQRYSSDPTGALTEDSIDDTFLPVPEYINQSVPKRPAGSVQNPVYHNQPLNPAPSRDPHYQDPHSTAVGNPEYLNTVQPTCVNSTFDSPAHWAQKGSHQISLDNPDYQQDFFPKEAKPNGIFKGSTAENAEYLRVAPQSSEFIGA
Chain of EGFR wildtype (P00533 25-1210): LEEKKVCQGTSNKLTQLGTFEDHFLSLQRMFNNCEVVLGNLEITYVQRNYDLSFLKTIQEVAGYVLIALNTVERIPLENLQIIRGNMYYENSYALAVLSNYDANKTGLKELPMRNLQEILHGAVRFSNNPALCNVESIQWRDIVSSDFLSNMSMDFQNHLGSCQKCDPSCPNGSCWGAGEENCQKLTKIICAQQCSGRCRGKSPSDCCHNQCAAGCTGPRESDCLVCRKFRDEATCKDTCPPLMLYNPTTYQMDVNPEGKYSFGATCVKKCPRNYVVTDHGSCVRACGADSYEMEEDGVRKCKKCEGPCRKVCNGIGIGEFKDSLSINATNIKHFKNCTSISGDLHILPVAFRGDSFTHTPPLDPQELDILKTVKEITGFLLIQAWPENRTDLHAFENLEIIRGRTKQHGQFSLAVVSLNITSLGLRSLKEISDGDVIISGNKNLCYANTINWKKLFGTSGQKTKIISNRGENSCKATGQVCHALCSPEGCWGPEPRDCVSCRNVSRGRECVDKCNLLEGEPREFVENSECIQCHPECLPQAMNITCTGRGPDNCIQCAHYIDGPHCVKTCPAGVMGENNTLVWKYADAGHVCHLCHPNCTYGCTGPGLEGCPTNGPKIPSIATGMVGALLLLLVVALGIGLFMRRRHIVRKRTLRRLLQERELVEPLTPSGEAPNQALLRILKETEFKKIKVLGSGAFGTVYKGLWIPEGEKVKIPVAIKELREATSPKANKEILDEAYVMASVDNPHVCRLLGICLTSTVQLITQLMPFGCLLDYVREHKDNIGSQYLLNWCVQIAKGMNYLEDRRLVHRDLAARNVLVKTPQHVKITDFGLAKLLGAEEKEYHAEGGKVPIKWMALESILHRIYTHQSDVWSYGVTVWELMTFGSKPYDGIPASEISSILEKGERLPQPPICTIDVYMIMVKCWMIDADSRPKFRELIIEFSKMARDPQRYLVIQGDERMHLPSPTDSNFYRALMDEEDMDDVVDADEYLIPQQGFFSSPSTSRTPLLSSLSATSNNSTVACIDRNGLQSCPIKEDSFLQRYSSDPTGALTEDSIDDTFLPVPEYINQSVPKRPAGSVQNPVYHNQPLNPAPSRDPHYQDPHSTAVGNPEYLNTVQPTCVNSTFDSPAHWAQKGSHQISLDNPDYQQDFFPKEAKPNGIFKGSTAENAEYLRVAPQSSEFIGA
Chain of EGFR del19/C797S (P00533 with tags, fused parts or gaps DEL746-750/C797S): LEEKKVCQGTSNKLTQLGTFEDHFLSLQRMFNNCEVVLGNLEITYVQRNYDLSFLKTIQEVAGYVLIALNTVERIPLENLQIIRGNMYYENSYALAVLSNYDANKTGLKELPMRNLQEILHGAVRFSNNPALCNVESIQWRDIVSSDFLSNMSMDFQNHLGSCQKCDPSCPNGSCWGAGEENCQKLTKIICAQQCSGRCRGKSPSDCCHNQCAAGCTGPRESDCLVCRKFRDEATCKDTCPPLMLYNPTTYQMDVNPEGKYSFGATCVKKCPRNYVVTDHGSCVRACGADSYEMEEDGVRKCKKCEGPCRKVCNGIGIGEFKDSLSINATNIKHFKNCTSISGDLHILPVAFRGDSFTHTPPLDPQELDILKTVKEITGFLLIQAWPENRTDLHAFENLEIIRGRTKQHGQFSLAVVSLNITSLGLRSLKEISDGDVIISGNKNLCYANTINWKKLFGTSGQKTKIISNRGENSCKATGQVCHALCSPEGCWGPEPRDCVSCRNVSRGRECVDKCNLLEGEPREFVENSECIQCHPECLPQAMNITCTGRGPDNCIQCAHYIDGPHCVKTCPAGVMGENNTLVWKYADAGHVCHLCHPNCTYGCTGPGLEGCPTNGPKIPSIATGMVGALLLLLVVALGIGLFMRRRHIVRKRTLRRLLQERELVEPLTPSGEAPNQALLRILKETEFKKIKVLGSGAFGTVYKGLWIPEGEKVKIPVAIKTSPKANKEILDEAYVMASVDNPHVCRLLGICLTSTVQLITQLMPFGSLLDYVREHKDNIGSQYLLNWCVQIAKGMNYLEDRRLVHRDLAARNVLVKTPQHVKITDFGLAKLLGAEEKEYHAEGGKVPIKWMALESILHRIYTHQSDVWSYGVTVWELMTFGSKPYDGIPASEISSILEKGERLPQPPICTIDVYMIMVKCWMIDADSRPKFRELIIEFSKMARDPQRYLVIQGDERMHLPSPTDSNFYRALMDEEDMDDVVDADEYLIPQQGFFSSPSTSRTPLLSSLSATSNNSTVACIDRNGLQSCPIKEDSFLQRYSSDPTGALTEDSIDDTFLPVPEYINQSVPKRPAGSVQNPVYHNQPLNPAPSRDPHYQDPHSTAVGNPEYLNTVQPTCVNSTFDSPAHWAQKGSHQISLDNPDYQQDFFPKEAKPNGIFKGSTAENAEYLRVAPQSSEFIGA
Chain of EGFR L858R/T790M/C797S (P00533 25-1210 T790M/C797S/L858R): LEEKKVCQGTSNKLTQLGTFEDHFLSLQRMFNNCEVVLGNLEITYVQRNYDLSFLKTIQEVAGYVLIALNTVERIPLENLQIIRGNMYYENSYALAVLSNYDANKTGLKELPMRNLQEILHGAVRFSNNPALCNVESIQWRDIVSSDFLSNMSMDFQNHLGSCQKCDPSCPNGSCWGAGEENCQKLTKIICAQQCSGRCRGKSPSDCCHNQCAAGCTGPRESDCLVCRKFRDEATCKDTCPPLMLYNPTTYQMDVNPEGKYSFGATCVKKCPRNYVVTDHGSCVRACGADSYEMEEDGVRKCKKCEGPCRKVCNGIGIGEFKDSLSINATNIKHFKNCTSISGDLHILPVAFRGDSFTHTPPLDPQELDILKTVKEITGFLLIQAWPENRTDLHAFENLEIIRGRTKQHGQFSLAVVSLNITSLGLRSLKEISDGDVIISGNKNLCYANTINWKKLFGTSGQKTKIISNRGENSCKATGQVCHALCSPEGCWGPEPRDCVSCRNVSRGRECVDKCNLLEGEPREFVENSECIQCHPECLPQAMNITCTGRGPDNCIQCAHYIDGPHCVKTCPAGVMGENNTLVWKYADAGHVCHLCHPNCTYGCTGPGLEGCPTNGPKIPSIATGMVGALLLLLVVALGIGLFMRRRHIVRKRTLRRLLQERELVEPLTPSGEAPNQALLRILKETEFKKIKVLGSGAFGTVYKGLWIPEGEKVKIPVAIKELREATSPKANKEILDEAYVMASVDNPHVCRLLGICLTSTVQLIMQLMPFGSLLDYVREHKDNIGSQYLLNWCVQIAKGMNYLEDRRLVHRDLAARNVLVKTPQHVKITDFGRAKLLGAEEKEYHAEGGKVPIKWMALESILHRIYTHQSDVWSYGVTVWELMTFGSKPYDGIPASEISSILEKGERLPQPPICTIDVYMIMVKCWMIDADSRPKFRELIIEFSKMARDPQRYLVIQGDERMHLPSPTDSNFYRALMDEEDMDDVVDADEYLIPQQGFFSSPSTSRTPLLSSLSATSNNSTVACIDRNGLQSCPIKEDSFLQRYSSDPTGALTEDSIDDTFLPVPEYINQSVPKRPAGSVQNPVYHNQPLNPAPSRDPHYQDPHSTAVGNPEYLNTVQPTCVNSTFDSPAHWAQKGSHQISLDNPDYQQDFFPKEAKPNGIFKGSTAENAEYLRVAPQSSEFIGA

Regarding `C[C@]1(O)CC[C@@H](Nc2cc(Nc3ccnc(-c4cnn(S(=O)(=O)C5CC5)c4)n3)ncc2-c2cc(CN3CCC(F)(F)CC3)ccn2)CC1` [Example 112, (1s,4s)-4-((6′-((2-(1-(Cyclopropylsulfonyl)-1H-pyrazol-4-yl)pyrimidin-4-yl)amino)-4-((4,4-difluoropiperidin-1-yl)methyl)-[2,3′-bipyridin]-4′-yl)amino)-1-methylcyclohexan-1-ol], the IC50 in test [1] (setting [6]) worked out at 5.7 nM; in test [1] (setting [7]), 4.5 nM; in test [2] (setting [8]), 3.6 nM; in test [2] (setting [9]), 2 nM; in test [3] (setting [10]), 23.2 nM; in test [3] (setting [11]) it was 5.1 nM. In addition, the IC50 was 6.9 nM in test [4] (setting [12]), 6.8 nM in test [4] (setting [13]), greater than 10000 nM in test [5] (setting [14]) and 11.7 nM in test [5] (setting [15]).

Turning to `CN1CCN(c2ccc(-c3cnc(Nc4ccnc(-c5cnn(S(=O)(=O)C6CC6)c5)n4)cc3N[C@H]3CC[C@@](C)(O)CC3)nc2)CC1` [Example 83, (1s,4s)-4-((6′-((2-(1-(Cyclopropylsulfonyl)-1H-pyrazol-4-yl)pyrimidin-4-yl)amino)-5-(4-methylpiperazin-1-yl)-[2,3′-bipyridin]-4′-yl)amino)-1-methylcyclohexan-1-ol], the IC50 was determined as 0.6 nM in test [1] (setting [6]); 0.7 nM in test [1] (setting [7]); 0.3 nM in test [2] (setting [8]); 0.2 nM in test [2] (setting [9]); 0.2 nM in test [3] (setting [10]); 0.2 nM in test [3] (setting [11]). The IC50 in test [4] (setting [12]) was 0.4 nM; in test [4] (setting [13]), 0.1 nM; in test [5] (setting [14]) it was 24.9 nM; in test [5] (setting [15]), 0.2 nM.

Regarding `CN(C)c1cnc(-c2cnc(Nc3ccnc(-c4cnn(S(=O)(=O)C5CC5)c4)n3)cc2N[C@H]2CC[C@@](C)(O)CC2)nc1` [Example 39, (1s,4s)-4-((2-((2-(1-(Cyclopropylsulfonyl)-1H-pyrazol-4-yl)pyrimidin-4-yl)amino)-5-(5-(dimethylamino)pyrimidin-2-yl)pyridin-4-yl)amino)-1-methylcyclohexan-1-ol], the IC50 stood at 2.1 nM in test [1] (setting [6]); 1 nM in test [1] (setting [7]); 0.7 nM in test [2] (setting [8]); 0.4 nM in test [2] (setting [9]); 2.5 nM in test [3] (setting [11]); 74.8 nM in test [4] (setting [12]). The IC50 in test [4] (setting [13]) was 8.7 nM; in test [5] (setting [14]), greater than 10000 nM; in test [5] (setting [15]), 26 nM.

As for `O=S(=O)(C1CC1)n1cc(-c2nccc(Nc3cc(N[C@H]4CC[C@@H](CO)CC4)c(-c4ccc(C(F)(F)CO)cn4)cn3)n2)cn1` [Example 244, 2-(6′-((2-(1-(Cyclopropylsulfonyl)-1H-pyrazol-4-yl)pyrimidin-4-yl)amino)-4′-(((1s,4s)-4-(hydroxymethyl)cyclohexyl)amino)-[2,3′-bipyridin]-5-yl)-2,2-difluoroethan-1-ol], the IC50 in test [1] (setting [16]) was found to be 0.9 nM; in test [1] (setting [17]) it was 1.7 nM; in test [2] (setting [18]), 0.2 nM; in test [2] (setting [19]) it was 0.3 nM; in test [3] (setting [20]), 0.6 nM; in test [3] (IC50 del19/C797S, 100 μM ATP), 0.9 nM. The IC50 was found to be 0.4 nM in test [4] (setting [21]); 0.9 nM in test [4] (IC50 L858R/C797S, 100 μM ATP); 1.8 nM in test [5] (setting [22]); 1420 nM in test [5] (IC50 WT, 100 μM ATP).

As to `CN(C)C(=O)[C@H]1CC[C@@H](Nc2cc(Nc3ccnc(-c4cnn(S(=O)(=O)C5CC5)c4)n3)ncc2-c2ccc(C(C)(C)O)cn2)CC1` [Example 172, (1s,4s)-4-((6′-((2-(1-(Cyclopropylsulfonyl)-1H-pyrazol-4-yl)pyrimidin-4-yl)amino)-5-(2-hydroxypropan-2-yl)-[2,3′-bipyridin]-4′-yl)amino)-N,N-dimethylcyclohexane-1-carboxamide], the IC50 in test [1] (setting [16]) came out at 0.7 nM; in test [1] (setting [17]) it was 0.6 nM; in test [2] (setting [18]), 0.2 nM; in test [2] (setting [19]), 0.2 nM; in test [3] (setting [20]) it was 0.3 nM; in test [3] (IC50 del19/C797S, 100 μM ATP), 0.8 nM. Moreover, the IC50 in test [4] (setting [21]) was 1.3 nM; in test [4] (IC50 L858R/C797S, 100 μM ATP), 4.8 nM; in test [5] (setting [22]), 0.4 nM; in test [5] (IC50 WT, 100 μM ATP), 93.2 nM.
